Experimental data taken from US4226883A, “Carbamate derivatives and method for manufacture thereof” (priority 1974, dated 1980).

Tested on: green rice leafhoppers of the strain RN
Assay: Test Example 3: dust spray test (20 mesh metal gauze cylinder)
Assay type: in vivo, Nephotettix cincticeps
Conditions: for Effect of individual compound (RN), death ratio (%) (Table 9): dust, compound alone, RN strain; for death ratio (%), mixture with Compound No. 1 / death ratio (%), mixture with Compound No. 6* / death ratio (%), mixture with Compound No. 24* / death ratio (%), mixture with Compound No. 35* / death ratio (%), mixture with Compound No. 40* / death ratio (%), mixture with Compound No. 49* / death ratio (%), mixture with Compound No. 81* / death ratio (%), mixture with Compound No. 118* / death ratio (%), mixture with Carbofuran / death ratio (%), mixture with Methomyl: Table 9, RN; for death ratio (%), mixture with Compound No. 1: dust mixed with 1; for death ratio (%), mixture with Compound No. 6*: dust mixed with 6*; for death ratio (%), mixture with Compound No. 24*: dust mixed with 24*; for death ratio (%), mixture with Compound No. 35*: dust mixed with 35*; for death ratio (%), mixture with Compound No. 40*: dust mixed with 40*; for death ratio (%), mixture with Compound No. 49*: dust mixed with 49*; for death ratio (%), mixture with Compound No. 81*: dust mixed with 81*; for death ratio (%), mixture with Compound No. 118*: dust mixed with 118*; for death ratio (%), mixture with Carbofuran: dust mixed with Carbofuran; for death ratio (%), mixture with Methomyl: dust mixed with Methomyl
Procedure: The insecticides in the form of dust were tested for insecticidal activity.
The test for insecticidal activity was performed by the following procedure. […] The dust of a test compound (pulverized by means of a shaking pulverizer made by Taira Kosakusho, Ltd.) was applied onto the tube contents at a prescribed rate by spraying from outside the metal gauze by means of a bell-jar duster. The dust of the test compound was prepared uniformly mixing 2 parts of the dust of the individual compound or 1 part each of the dusts of the mixture components (total 2 parts) and 98 parts of a carrier obtained by mixing talc and clay in equal volumes.

For `CNC(=O)Oc1cccc2c1OC(C)(C)C2` [Carbofuran, 2,3dihydro-2,2-dimethyl-benzofuran-7-yl-N-methylcarbamate, reference compound], the “Effect of individual compound (RN), death ratio (%) (Table 9)” value (“Effect … death ratio (%) (Table 9)” for short) was 40.0%.

In the case of `CCCNC(=O)Oc1ccccc1OC` [Compound 77, 2-methoxyphenyl-N-n-propylcarbamate], the “death ratio (%), mixture with Compound No. 1” value is reported as 95.0%, the “death ratio (%), mixture with Compound No. 6*” value is reported as 100% and the “death ratio (%), mixture with Compound No. 24*” value is reported as 100%. The “death ratio (%), mixture with Compound No. 35*” value was 100%, the “death ratio (%), mixture with Compound No. 40*” value was 95.0% and the “death ratio (%), mixture with Compound No. 49*” value was 50.0%. The “death ratio (%), mixture with Compound No. 81*” value was 80.0%, the “death ratio (%), mixture with Compound No. 118*” value was 100% and the “death ratio (%), mixture with Carbofuran” value was 100%. The “death ratio (%), mixture with Methomyl” value was 100% and the “Effect … death ratio (%) (Table 9)” value was 45.0%.

In the case of `CCCNC(=O)Oc1ccccc1OCC` [Compound 80, 2-ethoxyphenyl-N-n-propylcarbamate], the “death ratio (%), mixture with Compound No. 1” value is reported as 65.0%, the “death ratio (%), mixture with Compound No. 6*” value is reported as 60.0% and the “death ratio (%), mixture with Compound No. 24*” value is reported as 57.5%. For the same compound, the “death ratio (%), mixture with Compound No. 35*” value was 65.0%, the “death ratio (%), mixture with Compound No. 40*” value was 55.0% and the “death ratio (%), mixture with Compound No. 49*” value was 15.0%. For the same compound, the “death ratio (%), mixture with Compound No. 81*” value was 60.0%, the “death ratio (%), mixture with Compound No. 118*” value was 70.0% and the “death ratio (%), mixture with Carbofuran” value was 85.0%. The “death ratio (%), mixture with Methomyl” value was 75.0% and the “Effect … death ratio (%) (Table 9)” value was 0%.

`CCNC(=O)Oc1ccccc1OC(C)C` [Compound 82, 2-isopropoxyphenyl-N-ethylcarbamate] was tested, and the “death ratio (%), mixture with Compound No. 1” value was 25.0%, the “death ratio (%), mixture with Compound No. 6*” value was 50.0% and the “death ratio (%), mixture with Compound No. 24*” value was 45.0%. For the same compound, the “death ratio (%), mixture with Compound No. 35*” value was 60.0%, the “death ratio (%), mixture with Compound No. 40*” value was 45.0% and the “death ratio (%), mixture with Compound No. 49*” value was 15.0%. The “death ratio (%), mixture with Compound No. 81*” value was 55.0%, the “death ratio (%), mixture with Compound No. 118*” value was 80.0% and the “death ratio (%), mixture with Carbofuran” value was 80.0%. The “death ratio (%), mixture with Methomyl” value was 85.0% and the “Effect … death ratio (%) (Table 9)” value was 15.0%.

`CCCCNC(=O)Oc1ccccc1OC(C)C` [Compound 84] was tested, and the “death ratio (%), mixture with Compound No. 1” value was 0%, the “death ratio (%), mixture with Compound No. 6*” value was 15.0% and the “death ratio (%), mixture with Compound No. 24*” value was 5.0%. For the same compound, the “death ratio (%), mixture with Compound No. 35*” value was 10.0%, the “death ratio (%), mixture with Compound No. 40*” value was 5.0% and the “death ratio (%), mixture with Compound No. 49*” value was 0%. For the same compound, the “death ratio (%), mixture with Compound No. 81*” value was 100%, the “death ratio (%), mixture with Compound No. 118*” value was 67.5% and the “death ratio (%), mixture with Carbofuran” value was 55.0%. The “death ratio (%), mixture with Methomyl” value was 70.0% and the “Effect … death ratio (%) (Table 9)” value was 0%.

With `C=CCNC(=O)Oc1ccccc1OC(C)C` [Compound 85, 2-isopropoxyphenyl-N-allylcarbamate] the “death ratio (%), mixture with Compound No. 1” value was 50.0%, the “death ratio (%), mixture with Compound No. 6*” value was 45.0% and the “death ratio (%), mixture with Compound No. 24*” value was 35.0%. For the same compound, the “death ratio (%), mixture with Compound No. 35*” value was 75.0%, the “death ratio (%), mixture with Compound No. 40*” value was 60.0% and the “death ratio (%), mixture with Compound No. 49*” value was 0%. For the same compound, the “death ratio (%), mixture with Compound No. 81*” value was 80.0%, the “death ratio (%), mixture with Compound No. 118*” value was 35.0% and the “death ratio (%), mixture with Carbofuran” value was 85.0%. The “death ratio (%), mixture with Methomyl” value was 90.0% and the “Effect … death ratio (%) (Table 9)” value was 25.0%.

With `CCCNC(=O)Oc1cccc(OCC)c1` [Compound 94, 3-ethoxyphenyl-N-n-propylcarbamate] the “death ratio (%), mixture with Compound No. 1” value was 80.0%, the “death ratio (%), mixture with Compound No. 6*” value was 85.0% and the “death ratio (%), mixture with Compound No. 24*” value was 95.0%. The “death ratio (%), mixture with Compound No. 35*” value was 95.0%, the “death ratio (%), mixture with Compound No. 40*” value was 85.0% and the “death ratio (%), mixture with Compound No. 49*” value was 35.0%. For the same compound, the “death ratio (%), mixture with Compound No. 81*” value was 95.0%, the “death ratio (%), mixture with Compound No. 118*” value was 95.0% and the “death ratio (%), mixture with Carbofuran” value was 90.0%. The “death ratio (%), mixture with Methomyl” value was 100% and the “Effect … death ratio (%) (Table 9)” value was 0%.

In the case of `CNC(=O)Oc1cc(C)c(N(C)C)c(C)c1` [Compound 118, 4-dimethylamino-3,5-dimethylphenyl-N-methylcarbamate, reference compound], the “Effect … death ratio (%) (Table 9)” value is reported as 23.4%.
